Consider one compound from patent US11571418B2, “Platinum compounds that inhibit constitutive STAT3 signaling and induce cell cycle arrest and apoptosis of malignant cells” (H. LEE MOFFITT CANCER CENTER AND RESEARCH INSTITUTE, INC., priority 2011, dated 2023).

Bounds are passed on as bounds.

The subject of test [1] is IL-6-induced Stat3 activation in NIH3T3. As to the kind of experiment: IL-6-induced Stat3 activation in NIH3T3 (EMSA of nuclear extracts). In kind it is cell-based, mouse. Here is the method: FIGS. 3A-3D. Inhibition of Stat3-mediated gene expression by PLATINUM-401. (FIG. 3A) and (FIG. 3B) v-Src-transformed mouse fibroblasts that stably express Stat3-dependent (NIH3T3/v-Src/pLucTKS3) and Stat3-independent (NIH3T3/v-Src/pRLSRE) luciferase reporters or β-galactosidase (β-gal), as well as normal mouse fibroblast (NIH3T3) transiently transfected with pLucTKS3, pGL2-VEGF-Luc, NFkB-Luc or pLucSRE together with or without v-Src were treated with or without PLATINUM-401 for 48 h. Cytosolic extracts were then prepared from cells for luciferase and […] activities measurements. Values are the means and S.D. of three to five independent assays; (FIG. 3C) and (FIG. 3D) Nuclear extracts or whole cell lysates were prepared from IL-6-stimulated normal mouse fibroblasts (NIH3T3) or their v-Src-transformed counterpart (NIH3T3/v-Src) that are treated with or without PLATINUM-401 for different times. Samples of equal total proteins were then subjected to in vitro DNA-binding activity and EMSA analysis or for SDS-PAGE and Western blot analysis for phosphorylated and total Stat3. […]
To further investigate the activities of PLATINUM-401, the inventors treated malignant cells and measured effects on Stat3 signaling. […]

In the next test the target is T1, E2F1 (Homo sapiens, UniProt Q01094).
T1 construct: made in house; host or cells: Sf-9 insect cells infected with baculovirus
T1 sequence (Q01094 whole entry, species assumed): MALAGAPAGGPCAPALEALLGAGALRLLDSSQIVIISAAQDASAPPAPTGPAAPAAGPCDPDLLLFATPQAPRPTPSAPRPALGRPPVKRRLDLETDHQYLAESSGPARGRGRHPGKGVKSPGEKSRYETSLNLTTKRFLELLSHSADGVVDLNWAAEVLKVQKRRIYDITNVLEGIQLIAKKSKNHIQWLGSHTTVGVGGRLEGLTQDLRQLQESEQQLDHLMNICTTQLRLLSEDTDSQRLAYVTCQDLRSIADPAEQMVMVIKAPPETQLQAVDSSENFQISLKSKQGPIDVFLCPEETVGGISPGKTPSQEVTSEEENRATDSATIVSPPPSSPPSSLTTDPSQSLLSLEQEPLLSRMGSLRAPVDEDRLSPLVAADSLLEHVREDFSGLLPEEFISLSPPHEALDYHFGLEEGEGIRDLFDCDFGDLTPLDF
As to the kind of experiment: In vitro E2F1 DNA-binding activity assay, EMSA with DHFR promoter probe. The settings on record: cell lysates pre-incubated with compound before DHFR promoter probe. Here is the method:
FIGS. 1A-1E. Inhibition of in vitro Stat3 DNA-binding activity by a platinum complex. Nuclear extracts or cell lysates containing activated Stat1, Stat3 and Stat5, or E2F1 prepared from NIH3T3/hEGFR that are stimulated with EGF or Sf-9 insect cells that are infected with baculovirus expressing Stat1, Stat3, Stat5, or E2F1, respectively, were treated with or without the indicated concentrations of platinum complex, PLATINUM-401 or Cisplatin, for 30 min at room temperature prior to incubation with radiolabeled oligonucleotide probes, and subjected to EMSA analysis. (FIG. 1A) (i) Stat1 and Stat3 binding activities to hSIE probe, (ii) Stat1 and Stat5 binding activities to MGFe probe, and (iii) plot of % oligonucleotide probe-STAT:STAT complexes versus concentration of PLATINUM-401. […] Positions of STAT: STAT-DNA complexes in gel are labeled. In (A) to (C), the control lanes represent DMSO (vehicle)-treatment.
In control studies, the effect of PLATINUM-401 was evaluated on the DNA-binding activity of the E2F1 protein that is unrelated to STATs.

In a further test the test system is MDA-MB-453. As to the kind of experiment: Ki67 proliferation index by immunohistochemistry. In kind it is cell-based, human. The settings on record: no persistent Stat3 activity. As for the experimental part:
FIGS. 5A and 5B. Evaluation for effects of PLATINUM-401 on cellular constitutive Stat3 activation and cell proliferation. Normal or malignant cells were treated with or without PLATINUM-401 and nuclear extracts were prepared for Stat3 DNA-binding activity assay with hSIE probe, or cells were processed for nuclear Ki67 immunohistochemistry. (FIG. 5A) EMSA analysis of Stat3 DNA-binding activity; (FIG. 5B) Graphical representations of quantified nuclear staining of Ki-67 proliferation index. Stat3:Stat3-DNA complexes in gels are labeled. The Ki-67 proliferation indexes were calculated as the percent positive tumor cells relative to the total number of cells. […]
Immunohistochemistry—The indirect peroxidase-antiperoxidase test was performed on cytospins prepared from cell lines (control and treated). […] The presence of Ki-67 nuclear staining was calculated as percent positive tumor cells in relation to the total number of cells.
The inventors further examined the biological effects of PLATINUM-401 and determined whether any changes might correlate with the inhibition of constitutively-active Stat3. […]
Changes in cell proliferation induced by treatment with PLATINUM-401 were assayed in terms of Ki67 proliferation index by immunohistochemistry. The presence of Ki-67 nuclear staining was calculated as the percent positive tumor cells in relation to the total number of cells.

On to `CC(O)CN1CCN(CC(C)O)CC1` (stereo not shown) [PLATINUM-401], for which, in test [1] (IL-6-stimulated NIH3T3), the “time at which IL-6-induced Stat3 activation was inhibited” value is reported as not above 30 min. The “ligand-induced activation of Stat3 DNA-binding activity” value in test [1] (time- and dose-dependent) was “inhibits”. The “effect on E2F1 DNA-binding activity” value on E2F1 is on record as “no significant effect”. In addition, in the test on MDA-MB-453, the “proliferation (Ki67 index)” value is “lack of effect”.
